From patent US20060069080A1, “Combinations of substituted azetidinones and CB1 antagonists” (priority 2004, published 2006)

Key:
[1] = system: hypercholesterolemic/diet induced obese C57BL/6 mouse; test: Treatment of hypercholesterolemic/diet induced obese C57BL/6 mice with ezetimibe; format: in vivo; settings: 5 mg/kg/day
Experimental: The hypercholesterolemic/diet induced obese C57BL/6 mouse can be used to evaluate the vivo efficacy of a cholesterol absorption inhibitor, ezetimibe, in combination with a selective CB1 receptor antagonist, rimonabant. Feeding mice a “western” diet containing 45 kcal % of fat and 0.15% cholesterol diet for 21 days increased plasma cholesterol to 150 mg/dL and increased hepatic cholesteryl esters 2-fold.
Nonfasted plasma cholesterol levels were determined by a modification of the cholesterol oxidase method, in which the reagents were available in a kit form from Wako Pure Chemicals Industries, Ltd. (Osaka, Japan). Samples of liver (0.2 g) were lipid extracted. Lipid extracts were dried under nitrogen into HPLC sample vials, resuspended in hexane and injected onto a Zorbax Sil (4.6×25 cm) silica column. Chromatography was performed using an isocratic mobile phase containing 98.8% hexane and 1.2% isopropanol at a flow rate of 2 mL/min. Lipids were detected by absorbance at 206 nm and quantitated by computer integration (System Gold, Beckman) of elution profiles. Elution time for cholesteryl ester was 1.45 min. Cholesteryl ester content of liver-derived samples was derived from a standard curve constructed using known amounts of cholesteryl oleate. Cholesteryl oleate was used as the standard since this is the major cholesteryl ester species present in the liver and this specific cholesteryl ester has an extinction coefficient that approximates that of a weighted average for all the cholesteryl esters present in the liver.

[2] = system: obese, hyperinsulinemic hamsters; settings: ezetimibe treatment; cited from earlier work
Diet induced obese mice = test: Treatment of diet induced obese C57BL/6 mice with rimonabant; format: in vivo, mouse; settings: 1, 3 and 10 mg/kg p.o. once a day for 5 consecutive days; western diet 16 weeks; at all doses
Experimental: Plasma leptin and insulin were determined using commercially available ELISA kits (Crystal Chem and ALPCO for leptin and insulin, respectively). Whole body adiposity was determined using an NMR based method (EchoMRI, Echo Medical Inc.).

diet-induced obese mice = settings: mouse, in vivo; cited from earlier work
patients = settings: cited from earlier work

## O=C1[C@H](CC[C@H](O)c2ccc(F)cc2)[C@@H](c2ccc(O)cc2)N1c1ccc(F)cc1 [Ezetimibe, ezetimibe]
[1]; western diet 21 days
  accumulation of hepatic cholesteryl esters: completely inhibited
[1]; western diet 21 days, control 12.8 mg/g
  hepatic cholesteryl esters: 4.6 mg/g
[1]; western diet (45 kcal % fat, 0.15% cholesterol) for 21 days, diet control 150 mg/dL
  plasma cholesterol levels: 102 mg/dL
[2]
  body weights: does not appear to cause any changes
  food consumption: does not appear to cause any changes
  plasma leptin levels: does not appear to cause any changes

## Cc1c(C(=O)NN2CCCCC2)nn(-c2ccc(Cl)cc2Cl)c1-c1ccc(Cl)cc1 [rimonabant]
Diet induced obese mice
  adiposity: significant dose dependent reduction
  body weight: significant dose dependent reduction
  cumulative food intake: significant dose dependent reduction
  plasma insulin levels: significant dose dependent reduction
  plasma leptin levels: significant dose dependent reduction
diet-induced obese mice
  plasma cholesterol levels: does not appear to reduce
patients
  serum high density lipoprotein (HDL) levels: increase
  triglyceride levels: decrease
